Reference: patent US9950072B2, “Controlled release formulations for the delivery of HIF-1 inhibitors” (The Johns Hopkins University, priority 2012, dated 2018)
“Also recorded” adds a separate entry of the source.

Tests used:
[1] = tested on: retinal NV in C57BL/6 mice with oxygen-induced ischemic retinopathy; experiment: Oxygen-induced ischemic retinopathy, area of retinal NV; assay type: in vivo; conditions: measured five days later (P17)
Experimental: At P17, the area of retinal NV on the surface of the retina was measured. […] Retinas were dissected, washed, and incubated with goat-anti rat polyclonal antibody conjugated with Alexa 488 (Invitrogen, Carlsbad, Calif.) at 1:500 dilution at room temperature for 45 minutes and flat mounted. An observer masked with respect to treatment group measured the area of NV per retina by image analysis.

[2] = tested on: retinal function in C57BL/6 mice; experiment: Electroretinograms (ERGs) after intraocular injection
Experimental: For scotopic recordings, mice were dark adapted overnight, and for photopic recordings, mice were adapted for 10 min to background white light at an intensity of 30 cd/m^2. The mice were anesthetized with an intraperitoneal injection of ketamine hydrochloride (100 mg/kg body weight) and xylazine (5 mg/kg body weight). Pupils were dilated with Midrin P containing of 0.5% tropicamide and 0.5% phenylephrine, hydrochloride (Santen Pharmaceutical Co., Osaka, Japan). The mice were placed on a pad heated to 39° C. and platinum loop electrodes were placed on each cornea after application of Gonioscopic prism solution (Alcon Labs, Fort Worth, Tex.). A reference electrode was placed subcutaneously in the anterior scalp between the eyes and a ground electrode was inserted into the tail. The head of the mouse was held in a standardized position in a ganzfeld bowl illuminator that ensured equal illumination of the eyes. Recordings for both eyes were made simultaneously with electrical impedance balanced. Scotopic ERGs were recorded at 11 intensity levels of white light ranging from −3.00 to 1.40 log cd-s/m2. Six measurements were averaged for each flash intensity. Photopic ERGs were recorded at three intensity levels of white light ranging from 0.60 to 1.40 log cd-s/m2 with a 30 cd/m2 background. Five measurements were averaged for each flash intensity.

[3] = tested on: choroidal NV in C57BL/6 mice; experiment: Laser-induced choroidal NV (rupture of Bruch's membrane) mouse model; assay type: in vivo; conditions: 14 days, vs fellow eyes injected with vehicle
Experimental: Pathogen-free C57BL/6 mice (Charles River, Wilmington, Mass.) were treated in accordance with the Association for Research in Vision and Ophthalmology Statement for the Use of Animals in Ophthalmic and Vision Research and the guidelines of the Johns Hopkins University Animal Care and Use Committee.
Choroidal NV was induced by laser photocoagulation-induced rupture of Bruch's membrane as previously described (Tobe, T. et al., Am. J. Pathol. 135(5): 1641-1646 (1998)). […] Laser photocoagulation (75 μm spot size, 0.1 sec duration, 120 mW) was performed in the 9, 12, and 3 o'clock positions of the posterior pole of each eye with the slit lamp delivery system of an OcuLight GL diode laser (Iridex, Mountain View, Calif.) and a handheld cover slip as a contact lens to view the retina. Production of a bubble at the time of laser, which indicates rupture of Bruch's membrane, is an important factor in obtaining CNV; therefore, only burns in which a bubble was produced were included in the study.
Immediately after laser-induced rupture of Bruch's membrane, mice were randomized to various treatment groups for intraocular injections. Intravitreal injections were done under a dissecting microscope with a Harvard Pump Microinjection System and pulled glass micropipettes.
At 1, 4, 7, and 14 days after injection, fundus photographs were taken with a Micron III® camera (Phoenix Research Laboratories Inc., Pleasanton, Calif.). After 14 days, the mice were perfused with 1 ml of PBS containing 25 mg/ml of fluorescein-labeled dextran (2×10^6 Daltons average molecular weight; Sigma-Aldrich, St. Louis, Mo.) and choroidal flat mounts were examined by fluorescence microscopy. Images were captured with a Nikon Digital Still Camera DXM1200 (Nikon Instruments Inc., New York, N.Y.). Image analysis software (Image-Pro® Plus; Media Cybernetics, Silver Spring, Md.) was used to measure the total area of CNV at each rupture site with the investigator masked with respect to treatment group.

[4] = tested on: photoreceptor cells (ONL) of C57BL/6 mice; experiment: Outer nuclear layer (ONL) thickness after intraocular injection; assay type: in vivo; conditions: 0.25 μg intraocular; one week
Experimental: ONL thickness was measured. […] Mice were euthanized, a mark was placed at 12:00 at the corneal limbus, and eyes were removed and embedded in optimal cutting temperature compound. Ten micrometer frozen sections were cut parallel to the 12:00 or 9:00 meridian through the optic nerve and fixed in 4% paraformaldehyde. The sections were stained with hematoxylin and eosin, examined with an Axioskop microscope (Zeiss, Thornwood, N.Y.), and images were digitized using a three charge-coupled device (CCD) color video camera (IK-TU40A; Toshiba, Tokyo, Japan) and a frame grabber. Image-Pro Plus software (Media Cybernetics, Silver Spring, Md.) was used to outline the ONL.

[5] = tested on: HIF-1 transcriptional activity and ocular NV; conditions: intraocular injections of 0.01-0.25 μg; cited from earlier work
[6] = 1 μg intraocular, fourteen days
[7] = 0.1 μg intraocular injection after laser
[8] = 1.0 μg intraocular injection after laser
[9] = 10 μg intraocular injection after laser

COc1cccc2c1C(=O)c1c(O)c3c(c(O)c1C2=O)C[C@@](O)(C(C)=O)C[C@@H]3O[C@H]1C[C@H](N)[C@H](O)[C@H](C)O1 [DNR, daunorubicin]
area of RNV ([1]; 0.01 μg intraocular at P12): had no significant effect; also recorded: did not show a statistically significant reduction in the area of RNV
area of RNV ([1]; 0.1 μg intraocular at P12): caused a small reduction; also recorded: statistically significant reduction in the area of RNV
area of RNV ([1]; 1.0 μg intraocular at P12): markedly reduced the area of retinal NV; also recorded: statistically significant reduction in the area of RNV
mean scotopic and photopic b-wave amplitudes [2, 6]: significant reduction in mean scotopic and photopic b-wave amplitudes
area of CNV [3, 7]: had no significant effect; also recorded: did not show a statistically significant reduction in the area of CNV
area of CNV [3, 8]: had no significant effect; also recorded: did not show a statistically significant reduction in the area of CNV
area of CNV [3, 9]: suppressed choroidal NV; also recorded: statistically significant reduction in the area of CNV

COc1cccc2c1C(=O)c1c(O)c3c(c(O)c1C2=O)C[C@@](O)(C(=O)CO)C[C@@H]3O[C@H]1C[C@H](N)[C@H](O)[C@H](C)O1 [DXR, doxorubicin]
area of RNV ([1]; 0.01 μg intraocular at P12): but not 0.1 or 0.01 μg, significantly reduced; also recorded: did not show a statistically significant reduction in the area of RNV
area of RNV ([1]; 0.1 μg intraocular at P12): but not 0.1 or 0.01 μg, significantly reduced; also recorded: did not show a statistically significant reduction in the area of RNV
area of RNV ([1]; 1.0 μg intraocular at P12): significantly reduced the area of retinal NV; also recorded: statistically significant reduction in the area of RNV
mean scotopic and photopic b-wave amplitudes [2, 6]: significant reduction in mean scotopic and photopic b-wave amplitudes
area of CNV [3, 7]: did not have a significant effect; also recorded: did not show a statistically significant reduction in the area of CNV
area of CNV [3, 8]: did not have a significant effect; also recorded: did not show a statistically significant reduction in the area of CNV
area of CNV [3, 9]: suppressed choroidal NV; also recorded: statistically significant reduction in the area of CNV

C[C@H]1O[C@@H](O[C@H]2[C@@H](O)C[C@H](O[C@H]3[C@@H](O)C[C@H](O[C@H]4CC[C@@]5(C)[C@H](CC[C@@H]6[C@@H]5C[C@@H](O)[C@]5(C)[C@@H](C7=CC(=O)OC7)CC[C@]65O)C4)O[C@@H]3C)O[C@@H]2C)C[C@H](O)[C@@H]1O [digoxin]
mean scotopic and photopic b-wave amplitudes ([2]; 0.05 μg intraocular): significant reduction in mean scotopic and photopic b-wave amplitudes
ERG amplitudes (scotopic a-wave, scotopic b-wave, photopic b-wave) ([2]; 0.25 μg intraocular, one week): significant reduction in mean scotopic a-wave amplitude, mean scotopic b-wave amplitude, and mean photopic b-wave amplitude
outer nuclear layer thickness [4]: reduction in outer nuclear layer thickness at 3 of 6 measurement locations
effect on HIF-1 transcriptional activity and ocular NV [5]: suppress HIF-1 transcriptional activity and ocular NV
